Results on one molecule are retold here after ChEMBL document CHEMBL4420060, “Combinatorial therapies for the treatment of neoplasias using the opioid growth factor receptor” (2013).

Data set [1] has as its system UMSCC1. As to the kind of experiment: Induction of cell cycle arrest in human UM-SCC-1 cells assessed as accumulation at G1/S phase in presence of OGF after 6 hrs by flow cytometry. The class given is functional, cell-based.
Data set [2] has as its system MIA PaCa-2. In words: Antitumor activity against human MIAPaCa2 cells xenografted in athymic BALB/c nu/nu nude mouse assessed as time delay in visible tumor development at 120 mg/kg dosed every 3 days and co-treated with 10 mg/kg OGF relative to control. It is filed as functional. In general terms: In xenograft studies the graft and the host belong to different species.

Data set [3] concerns UMSCC1. As to the kind of experiment: Antitumor activity against human UM-SCC-1 cells xenografted in nu/nu mouse assessed as latency time for measurable (62.5 mm3) tumors at 120 mg/kg dosed every 3 days and co-treated with 10 mg/kg OGF (Rvb <=14 days). The class given is functional.
In data set [4] the test system is MIA PaCa-2. In words: Growth inhibition of human MIAPaCa2 cells assessed as decrease in cell number at 0.01 uM incubated for 48 hrs in presence of 1 uM OGF by trypan blue staining assay relative to control. The class given is functional.
The test system of data set [5] is MIA PaCa-2. In words: Growth inhibition of human MIAPaCa2 cells assessed as decrease in cell number at 0.01 uM incubated for 72 hrs in presence of 1 uM OGF by trypan blue staining assay relative to control. The class given is functional.
Data set [6] deals with MIA PaCa-2. As to the kind of experiment: Antitumor activity against human MIAPaCa2 cells xenografted in athymic BALB/c nu/nu nude mouse assessed as reduction in tumor weight at 120 mg/kg dosed every 3 days and co-treated with 10 mg/kg OGF measured on day 45 after tumor cell inoculation. The class given is functional. More on the design: scale not given: the % may be the effect or the level left.

In data set [7] the test system is MIA PaCa-2. As to the kind of experiment: Antitumor activity against human MIAPaCa2 cells xenografted in athymic BALB/c nu/nu nude mouse assessed as effect on tumor incidence at 120 mg/kg dosed every 3 days and co-treated with 10 mg/kg OGF measured on day 16 after tumor cell inoculation relative to control. It is filed as functional, organism-based.
Data set [8] can be described thus: Toxicity in athymic BALB/c nu/nu nude mouse xenografted with human MIAPaCa2 cells assessed as body weight at 120 mg/kg dosed every 3 days and co-treated with 10 mg/kg OGF measured on day 45 after tumor cell inoculation (reference value: 33.3 +/- 1 g). The class given is organism-based. The following applies: in vivo, 72 h.
Data set [9] relates to MIA PaCa-2. In words: Antitumor activity against human MIAPaCa2 cells xenografted in athymic BALB/c nu/nu nude mouse assessed tumor weight at 10 mg/kg dosed daily measured on day 45 after tumor cell inoculation (reference value: 5.5 +/- 1 g). It is filed as functional.
The test system of data set [10] is MIA PaCa-2. In words: Antitumor activity against human MIAPaCa2 cells xenografted in athymic BALB/c nu/nu nude mouse assessed spleen weight at 120 mg/kg dosed every 3 days and co-treated with 10 mg/kg OGF measured on day 45 after tumor cell inoculation (reference value: 761 +/- 61 mg). It is filed as functional.

Calls of active or inactive are those of the source. No cut-off for these calls is given here.

For the molecule `Nc1ccn([C@@H]2O[C@H](CO)[C@@H](O)C2(F)F)c(=O)n1` [GEMCITABINE], the result in the data set with UMSCC1 [1] was Active. The Time in the data set with MIA PaCa-2 [2] stood at 6 days; in the data set on UMSCC1 [3], 20 days. Also, the “growth inhibition (GI)” value in the data set with MIA PaCa-2 [4] came to 26.3%; with MIA PaCa-2 [5], 49.2%. The Activity in the data set on MIA PaCa-2 [6] amounted to 85%; in data set [8], 30.6 g; in the data set with MIA PaCa-2 [9] it was 3.5 g; with MIA PaCa-2 [10], 437 mg. Moreover, the outcome in the data set on MIA PaCa-2 [7] was inactive.
